We go through two molecules from US20240181056A1, “CHIMERIC ANTIGEN RECEPTOR (CAR)-T CELLS” (Imperial College Innovations Limited, priority 2021, published 2024).

In assay [1] the test system is T cells transduced with CART4 (tEGFR high cells). The assay is described as follows: In vitro suicide assay (iC9 safety switch, CID-induced apoptosis). The assay is classed as cell-based, human. On the procedure: CART4 with or without iC9 cells were generated with retroviral transduction with CART4 or CART4 w/o iC9 construct. CAR-T cells were kept expanded for five to seven days after transduction. A […] (CID), the B/B homodimerizer AP20187 (Clontech Laboratories), was added at a various concentration to T cell culture. The induction of apoptosis induced by CID was evaluated 24 hr later using Annexin-v/7-AAD (BD Biosciences) staining and flow cytometry analysis. Survival cells were quantified by counting beads (BD Biosciences). Survival index was calculated as follows: number of living tEGFR^+ cells/number of living tEGFR^+ cells in untreated control samples.
In order to evaluate the efficiency of iC9 safety switch in vitro, a CART4 variation without the iC9 gene (CART4 w/o iC9) was cloned as a control. T cells transduced with CART4 or CART4 without iC9 construct were exposed to increasing concentrations of the CID AP20187 (0.1 nM to 100 nM) for 24 hours. Cell death was accessed by flow cytometry analysis with 7AAD and Annexin-V. The tEGFR-positive percentage in the survived population dropped along with the increasing concentration of the CID. […] Consistent with the observations from other studies, the cells that escape killing were those expressing low levels of the transgene with a 50% reduction in mean fluorescence intensity (MFI) of tEGFR after CID (FIG. 1E). […]

Assay [2] addresses TCR Vbeta 7.1 chain (H. sapiens rearranged TCR Vbeta 7.1) (human). In words: cell-based or functional assay.
Assay [3] deals with CD4 antigen (T-cell surface glycoprotein CD4 [Homo sapiens]) (human) (UniProt P01730). In words: cell-based or functional assay.

TCR Vbeta 7.1 chain (H. sapiens rearranged TCR Vbeta 7.1) (human), sequence (A0A577 whole entry, form in doubt): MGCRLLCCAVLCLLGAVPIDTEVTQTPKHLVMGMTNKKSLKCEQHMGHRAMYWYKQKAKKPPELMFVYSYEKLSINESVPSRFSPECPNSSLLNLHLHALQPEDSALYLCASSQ

Regarding `CC[C@H](C(=O)N1CCCC[C@H]1C(=O)O[C@H](CCc1ccc(OC)c(OC)c1)c1cccc(OCC(=O)NCC(CNC(=O)COc2cccc([C@@H](CCc3ccc(OC)c(OC)c3)OC(=O)[C@@H]3CCCCN3C(=O)[C@@H](CC)c3cc(OC)c(OC)c(OC)c3)c2)CN(C)C)c1)c1cc(OC)c(OC)c(OC)c1` [AP20187], the “reduction in mean fluorescence intensity (MFI) of tEGFR in cells that escape killing” value in assay [1] (after CID) was found to be 50%. In addition, the “tEGFR high cells eliminated” value in assay [1] (single 100 nM dose of CID, 24 hours, flow cytometry 7AAD/Annexin-V) turned out to be 69.1%.
As for “CART20 chimeric antigen receptor (anti-CD20 CAR with scFv of monoclonal antibody Leu16)”, the TCR Vβ7.1-positive cells remaining after transduction with control CAR (flow cytometry) in assay [2] worked out at 1.2%. The molecule further showed a CD4-positive cells remaining after transduction with control CAR (flow cytometry) in assay [3] of 45%.
